ChEMBL document CHEMBL5647694, “Novel orally bioavailable EZH1/2 dual inhibitors with greater antitumor efficacy than an EZH2 selective inhibitor” (Cancer Sci, 2017)

Columns and labels:
[1] = molecular target: Serine/threonine-protein kinase Nek9 (Homo sapiens) (UniProt Q8TD19); experiment: Inhibition of N-terminal GST-fused truncated human NEK9 (1 to 346, 733 to 979 residues) expressed in baculovirus expression system using CDK7 peptide as substrate at 1 uM in presence of ATP by Mobility shift assay
[2] = molecular target: High affinity nerve growth factor receptor (Homo sapiens) (UniProt P04629); experiment: Inhibition of N-terminal GST-tagged human TRKA cytoplasmic domain (436 to 790 residues) expressed in baculovirus-infected Sf21 cells using CSKtide as substrate at 1 uM in presence of ATP by Mobility shift assay
[3] = molecular target: Casein kinase II alpha'/ beta (Homo sapiens) (UniProt P67870+P19784); experiment: Inhibition of N-terminal GST-fused full length human CK2alpha2 (1 to 350 residues)/His-tagged human CK2beta (1 to 215 residues ) expressed in baculovirus expression system using CK2tide as substrate at 1 uM in presence of ATP by Mobility shift assay
[4] = molecular target: Serine/threonine-protein kinase LATS2 (Homo sapiens) (UniProt Q9NRM7); experiment: Inhibition of N-terminal GST-fused human LATS2 catalytic domain (553 to 1088 residues) expressed in baculovirus expression system using SGKtide as substrate at 1 uM in presence of ATP by Mobility shift assay
[5] = molecular target: Proto-oncogene tyrosine-protein kinase ROS (Homo sapiens) (UniProt P08922); experiment: Inhibition of N-terminal GST-tagged human ROS cytoplasmic domain (1883 to 2347 residues) expressed in baculovirus-infected Sf21 cells using IRS1 as substrate at 1 uM in presence of ATP by Mobility shift assay
[6] = molecular target: Serine/threonine-protein kinase Nek1 (Homo sapiens) (UniProt Q96PY6); experiment: Inhibition of N-terminal GST-fused human NEK1 catalytic domain (1 to 505 residues) expressed in baculovirus expression system using CDK7 peptide as substrate at 1 uM in presence of ATP by Mobility shift assay
[7] = molecular target: Tyrosine-protein kinase Fes/Fps (Homo sapiens) (UniProt P07332); experiment: Inhibition of N-terminal GST-fused full length human FES (1 to 413, 416 to 822 residues) expressed in baculovirus-infected Sf21 cells using Srctide as substrate at 1 uM in presence of ATP by Mobility shift assay
[8] = molecular target: Serine/threonine-protein kinase PAK 1 (Homo sapiens) (UniProt Q13153); experiment: Inhibition of N-terminal GST-fused full length human PAK1 (1 to 545 residues) expressed in baculovirus expression system using LIMKtide as substrate at 1 uM in presence of ATP by Mobility shift assay
[9] = molecular target: Calcium/calmodulin-dependent protein kinase type II subunit delta (Homo sapiens) (UniProt Q13557); experiment: Inhibition of N-terminal GST-tagged full length human CAMK2d (1 to 478 residues) expressed in baculovirus-infected Sf21 cells using GS peptide as substrate at 1 uM in presence of ATP by Mobility shift assay
[10] = molecular target: Homeodomain-interacting protein kinase 1 (Homo sapiens) (UniProt Q86Z02); experiment: Inhibition of N-terminal GST-fused human HIPK1 catalytic domain (158 to 555 residues) expressed in baculovirus expression system using DYRKtide-F as substrate at 1 uM in presence of ATP by Mobility shift assay
[11] = molecular target: Fibroblast growth factor receptor 1 (Homo sapiens) (UniProt P11362); experiment: Inhibition of N-terminal GST-fused human FGFR1 cytoplasmic domain (398 to 822 residues ) expressed in baculovirus-infected Sf21 cells using CSKtide as substrate at 1 uM in presence of ATP by Mobility shift assay
[12] = molecular target: Serine/threonine-protein kinase WNK2 (Homo sapiens) (UniProt Q9Y3S1); experiment: Inhibition of N-terminal GST-fused human WNK2 catalytic domain (166 to 489 residues) expressed in baculovirus expression system using SPAKtide as substrate at 1 uM in presence of ATP by Mobility shift assay
[13] = molecular target: Tyrosine-protein kinase ABL1 (Homo sapiens) (UniProt P00519); experiment: Inhibition of N-terminal His-tagged wild type human ABL (2 to 1130 residues) expressed in baculovirus-infected Sf21 cells using ABLtide as substrate at 1 uM in presence of ATP by Mobility shift assay
[14] = molecular target: Phosphorylase b kinase gamma catalytic chain, liver/testis isoform (Homo sapiens) (UniProt P15735); experiment: Inhibition of N-terminal GST-fused full length human PHKG2 (1 to 406 residues) expressed in baculovirus expression system using GS peptide as substrate at 1 uM in presence of ATP by Mobility shift assay
[15] = molecular target: MAP kinase-activated protein kinase 5 (Homo sapiens) (UniProt Q8IW41); experiment: Inhibition of N-terminal GST-fused full length human MAPKAPK5 (1 to 471 residues) expressed in baculovirus expression system using GS peptide as substrate at 1 uM in presence of ATP by Mobility shift assay
[16] = molecular target: Misshapen-like kinase 1 (Homo sapiens) (UniProt Q8N4C8); experiment: Inhibition of N-terminal GST-fused human MINK catalytic domain (1 to 314 residues) expressed in baculovirus expression system using Modified Erktide as substrate at 1 uM in presence of ATP by Mobility shift assay
[17] = molecular target: Mitogen-activated protein kinase 3 (Homo sapiens) (UniProt P27361); experiment: Inhibition of N-terminal GST-fused full length human ERK1 (1 to 379 residues) expressed in Escherichia coli expression system using Modified Erktide as substrate at 1 uM in presence of ATP by Mobility shift assay
[18] = molecular target: Homeodomain-interacting protein kinase 4 (Homo sapiens) (UniProt Q8NE63); experiment: Inhibition of N-terminal GST-fused full length human HIPK4 (1 to 616 residues) expressed in baculovirus expression system using DYRKtide-F as substrate at 1 uM in presence of ATP by Mobility shift assay
[19] = molecular target: Serine/threonine-protein kinase MRCK alpha (Homo sapiens) (UniProt Q5VT25); experiment: Inhibition of N-terminal GST-fused truncated human MRCKalpha (1 to 574 residues) expressed in baculovirus expression system using DAPK1tide as substrate at 1 uM in presence of ATP by Mobility shift assay
[20] = molecular target: PI3-kinase p110-alpha/p85-alpha (Homo sapiens) (UniProt P27986+P42336); experiment: Inhibition of N-terminal DYKDDDDK tagged, biotinylated full length human PIK3CA (1 to 1068 residues)/human PIK3R1 (1 to 724 residues) expressed in baculovirus expression system using PI(4,5)P2 as substrate at 1 uM in presence of ATP by ADP-Glo assay
[21] = Inhibition of N-terminal GST-tagged human TRKB cytoplasmic domain (456 to 825 residues) expressed in baculovirus-infected Sf21 cells using Srctide as substrate at 1 uM in presence of ATP by Mobility shift assay; details: condition cancer
[22] = molecular target: Serine/threonine-protein kinase MARK1 (Homo sapiens) (UniProt Q9P0L2); experiment: Inhibition of N-terminal GST-fused full length human MARK1 (1 to 795 residues) expressed in baculovirus expression system using CHKtide as substrate at 1 uM in presence of ATP by Mobility shift assay

Structure (SMILES): Cc1cc(C)c(CNC(=O)c2cc(Br)c3c(c2C)O[C@@](C)([C@H]2CC[C@H](N(C)C)CC2)O3)c(=O)[nH]1
- inhibition [1]: -3.3%
- inhibition [2]: -5.1%
- inhibition [3]: -5.5%
- inhibition [4]: -0.6%
- inhibition [5]: -2.1%
- inhibition [6]: -7%
- inhibition [7]: -0.6%
- inhibition [8]: 2.3%
- inhibition [9]: -1.4%
- inhibition [10]: -4.7%
- inhibition [11]: -2.9%
- inhibition [12]: -2.1%
- inhibition [13]: -5.7%
- inhibition [14]: 0.7%
- inhibition [15]: -3.1%
- inhibition [16]: -2.6%
- inhibition [17]: -2.6%
- inhibition [18]: 3%
- inhibition [19]: 2.7%
- inhibition [20]: 9.8%
- inhibition at 1 µM [21]: -7.7%
- inhibition [22]: -4.5%

Structure (SMILES): Cc1cc(C)c(CNC(=O)c2cc(Cl)c3c(c2C)O[C@@](C)([C@H]2CC[C@H](N(C)C)CC2)O3)c(=O)[nH]1 [VALEMETOSTAT]
- inhibition [1]: -1.9%
- inhibition [2]: -5.7%
- inhibition [3]: -4.7%
- inhibition [4]: 0.6%
- inhibition [5]: -0.9%
- inhibition [6]: -7%
- inhibition [7]: -2.7%
- inhibition [8]: 2.6%
- inhibition [9]: -4.5%
- inhibition [10]: 0.5%
- inhibition [11]: -4.3%
- inhibition [12]: -3.7%
- inhibition [13]: -8%
- inhibition [14]: -2%
- inhibition [15]: -5.7%
- inhibition [16]: -4.6%
- inhibition [17]: -4.1%
- inhibition [18]: -3%
- inhibition [19]: 0.8%
- inhibition [20]: 0.6%
- inhibition at 1 µM [21]: -8.7%
- inhibition [22]: -7.1%
